This passage reports Ki and enrichment score results from patent US20250325542A1, “INHIBITORS OF ANTIMOCROBIAL RESISTANCE AND METHOS USING SAME” (Baylor College of Medicine, priority 2022, published 2025).

The target of assay [1] is T1, KPC-2 (Klebsiella pneumoniae, UniProt Q9F663). Briefly: KPC-2 enzyme inhibition (Ki). The class given is biochemical. From the text: Several hits were identified from the qDOS38_1 library against the KPC-2 enzyme. All compounds were synthesized without linker C1a. Among the hit compounds, CDD-2312 had the highest enrichment score of 5.9 but a lower count number of 115 compared to other libraries screened at the same time.

Assay [2] addresses T1, KPC-2. Briefly: DNA-encoded library affinity selection against KPC-2. Type of assay: binding. The conditions noted are these: qDOS38_1 library, on-DNA.

T1 sequence (Q9F663 whole entry, looked up, species assumed): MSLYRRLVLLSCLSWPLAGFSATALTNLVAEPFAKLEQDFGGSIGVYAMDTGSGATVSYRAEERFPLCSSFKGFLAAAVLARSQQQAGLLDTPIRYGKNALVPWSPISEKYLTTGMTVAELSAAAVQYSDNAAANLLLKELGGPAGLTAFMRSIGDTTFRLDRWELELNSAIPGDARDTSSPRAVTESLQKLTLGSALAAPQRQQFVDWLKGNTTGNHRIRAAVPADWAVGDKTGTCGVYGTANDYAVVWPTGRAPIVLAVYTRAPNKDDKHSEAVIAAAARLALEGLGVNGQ

As for `COc1cc(-c2cnc(NCC(=O)O)nc2)cc(C=O)c1OCC(=O)N(C)C` [CDD-2312, (5-(4-(2-(dimethylamino)-2-oxoethoxy)-3-formyl-5-methoxyphenyl)pyrimidin-2-yl)glycine], the affinity in assay [1], expressed as Ki, was 657 ± 123 µM. Moreover, the enrichment score in assay [2] is 5.9.
